pIC50: −log10 of the molar value. Values belong to the compound of their own block, whether it stands above or below them.
Tested on: 941728-121-R-J1-PDC complex spheroid viability
Experiment: Anticancer human tumor 941728-121-R-J1-PDC patient-derived lung adenocarcinoma cell line growth inhibition [RAS]
Conditions: for pIC50: curve of first compound; for viability, T/C: stronger effect = lower value
How it was run: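 Tumour cells grown as complex spheroids with HUVEC endothelial cells and mesenchymal stem cells, treated with RAS pathway inhibitor combinations. Each agent spans half-log steps from near clinical Cmax, or 10 microM where Cmax is unknown.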
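Further: spheroids exposed to compounds for 7 days before readout.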
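Wherever viability, T/C is given: 100% = DMSO vehicle control viability.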

pIC50 (second compound 0.00316 µM): > 7.50 | pIC50 (second compound 0.01 µM): > 7.50 | pIC50 (second compound 0.0316 µM): > 7.50 | pIC50 (second compound 0.1 µM): > 7.50 | pIC50 (second compound 0.316 µM): > 7.50 | pIC50 (second compound 1 µM): > 7.50
SMILES: CC(=O)OC12COC1CC(O)C1(C)C(=O)C(O)C3=C(C)C(OC(=O)C(O)C(NC(=O)OC(C)(C)C)c4ccccc4)CC(O)(C(OC(=O)c4ccccc4)C21)C3(C)C (centres undefined) + C=CC(=O)N1CCN(c2nc(OCC3CCCN3C)nc3c(F)c(-c4nc(N)cc(C)c4C(F)(F)F)c(Cl)cc23)C(C)C1
viability, T/C (second compound 0.00316 µM, first compound 0.0316 µM): 15.8% | viability, T/C (second compound 0.00316 µM, first compound 0.1 µM): 13.3% | viability, T/C (second compound 0.00316 µM, first compound 0.316 µM): 13.2% | viability, T/C (second compound 0.00316 µM, first compound 1 µM): 12.3% | viability, T/C (second compound 0.00316 µM, first compound 3.16 µM): 13.6% | viability, T/C (second compound 0.00316 µM, first compound 10 µM): 20.4% | viability, T/C (second compound 0.01 µM, first compound 0.0316 µM): 15.8% | viability, T/C (second compound 0.01 µM, first compound 0.1 µM): 10.3% | viability, T/C (second compound 0.01 µM, first compound 0.316 µM): 12.7% | viability, T/C (second compound 0.01 µM, first compound 1 µM): 12.2% | viability, T/C (second compound 0.01 µM, first compound 3.16 µM): 12.1% | viability, T/C (second compound 0.01 µM, first compound 10 µM): 12.1% | viability, T/C (second compound 0.0316 µM, first compound 0.0316 µM): 14.4% | viability, T/C (second compound 0.0316 µM, first compound 0.1 µM): 14.1% | viability, T/C (second compound 0.0316 µM, first compound 0.316 µM): 11% | viability, T/C (second compound 0.0316 µM, first compound 1 µM): 12.8% | viability, T/C (second compound 0.0316 µM, first compound 3.16 µM): 13.1% | viability, T/C (second compound 0.0316 µM, first compound 10 µM): 12.2% | viability, T/C (second compound 0.1 µM, first compound 0.0316 µM): 14.1% | viability, T/C (second compound 0.1 µM, first compound 0.1 µM): 15.6% | viability, T/C (second compound 0.1 µM, first compound 0.316 µM): 12% | viability, T/C (second compound 0.1 µM, first compound 1 µM): 13.8% | viability, T/C (second compound 0.1 µM, first compound 3.16 µM): 13.8% | viability, T/C (second compound 0.1 µM, first compound 10 µM): 12.6% | viability, T/C (second compound 0.316 µM, first compound 0.0316 µM): 13.5% | viability, T/C (second compound 0.316 µM, first compound 0.1 µM): 13% | viability, T/C (second compound 0.316 µM, first compound 0.316 µM): 14.1% | viability, T/C (second compound 0.316 µM, first compound 1 µM): 13.8% | viability, T/C (second compound 0.316 µM, first compound 3.16 µM): 13.1% | viability, T/C (second compound 0.316 µM, first compound 10 µM): 16.2% | viability, T/C (second compound 1 µM, first compound 0.0316 µM): 14.7% | viability, T/C (second compound 1 µM, first compound 0.1 µM): 13.5% | viability, T/C (second compound 1 µM, first compound 0.316 µM): 12.6% | viability, T/C (second compound 1 µM, first compound 1 µM): 14.6% | viability, T/C (second compound 1 µM, first compound 3.16 µM): 14% | viability, T/C (second compound 1 µM, first compound 10 µM): 14.5%

pIC50 (second compound 0.00316 µM): > 9.02 | pIC50 (second compound 0.01 µM): > 9.02 | pIC50 (second compound 0.0316 µM): > 9.02 | pIC50 (second compound 0.1 µM): > 9.02 | pIC50 (second compound 0.316 µM): > 9.02 | pIC50 (second compound 1 µM): > 9.02
SMILES: CC1(C)CCC(Nc2ncc(C(F)(F)F)c(-c3c[nH]c4c(P(C)(C)=O)c(C#N)ccc34)n2)CN1 (centres undefined) + C=CC(=O)N1CCN(c2nc(OCC3CCCN3C)nc3c(F)c(-c4nc(N)cc(C)c4C(F)(F)F)c(Cl)cc23)C(C)C1
viability, T/C (second compound 0.00316 µM, first compound 0.000949 µM): 17.1% | viability, T/C (second compound 0.00316 µM, first compound 0.003 µM): 18.1% | viability, T/C (second compound 0.00316 µM, first compound 0.00949 µM): 19.7% | viability, T/C (second compound 0.00316 µM, first compound 0.03 µM): 19% | viability, T/C (second compound 0.00316 µM, first compound 0.0949 µM): 20.5% | viability, T/C (second compound 0.00316 µM, first compound 0.3 µM): 20.9% | viability, T/C (second compound 0.01 µM, first compound 0.000949 µM): 18.9% | viability, T/C (second compound 0.01 µM, first compound 0.003 µM): 16.2% | viability, T/C (second compound 0.01 µM, first compound 0.00949 µM): 17.9% | viability, T/C (second compound 0.01 µM, first compound 0.03 µM): 17.8% | viability, T/C (second compound 0.01 µM, first compound 0.0949 µM): 17.9% | viability, T/C (second compound 0.01 µM, first compound 0.3 µM): 16.8% | viability, T/C (second compound 0.0316 µM, first compound 0.000949 µM): 14.8% | viability, T/C (second compound 0.0316 µM, first compound 0.003 µM): 16.8% | viability, T/C (second compound 0.0316 µM, first compound 0.00949 µM): 17.8% | viability, T/C (second compound 0.0316 µM, first compound 0.03 µM): 17.6% | viability, T/C (second compound 0.0316 µM, first compound 0.0949 µM): 17.7% | viability, T/C (second compound 0.0316 µM, first compound 0.3 µM): 17.7% | viability, T/C (second compound 0.1 µM, first compound 0.000949 µM): 15.4% | viability, T/C (second compound 0.1 µM, first compound 0.003 µM): 16.9% | viability, T/C (second compound 0.1 µM, first compound 0.00949 µM): 17% | viability, T/C (second compound 0.1 µM, first compound 0.03 µM): 17.2% | viability, T/C (second compound 0.1 µM, first compound 0.0949 µM): 17.8% | viability, T/C (second compound 0.1 µM, first compound 0.3 µM): 19.1% | viability, T/C (second compound 0.316 µM, first compound 0.000949 µM): 15.3% | viability, T/C (second compound 0.316 µM, first compound 0.003 µM): 15.8% | viability, T/C (second compound 0.316 µM, first compound 0.00949 µM): 15.8% | viability, T/C (second compound 0.316 µM, first compound 0.03 µM): 17.7% | viability, T/C (second compound 0.316 µM, first compound 0.0949 µM): 19.3% | viability, T/C (second compound 0.316 µM, first compound 0.3 µM): 18.1% | viability, T/C (second compound 1 µM, first compound 0.000949 µM): 16.6% | viability, T/C (second compound 1 µM, first compound 0.003 µM): 16.6% | viability, T/C (second compound 1 µM, first compound 0.00949 µM): 18.8% | viability, T/C (second compound 1 µM, first compound 0.03 µM): 19.3% | viability, T/C (second compound 1 µM, first compound 0.0949 µM): 18.6% | viability, T/C (second compound 1 µM, first compound 0.3 µM): 21%

Reference: PubChem BioAssay AID2060896 (Molecular Pharmacology Branch, DTP, NCI, 2025)
